This note sets out measurements from patent publication US7226754B2, “Kinase Wee1 fusion protein compositions, nucleotide sequences, expression systems, and methods of use” (The Scripps Research Institute, priority 1998, dated 2007).

Molecules are shown by their SMILES.

Assay [1] concerns Cds1. As to the kind of experiment: Cds1HAHIS autophosphorylation assay after HU treatment of cells. It is filed as cell-based, Schizosaccharomyces pombe. As to conditions: Cds1HAHIS purified from HU or mock-treated cells. From the text:
FIG. 3B is a photograph of an analysis of proteins which illustrates that HU activates Cds1 kinase activity. In a separate experiment Cds1^HAHIS was purified in native conditions and assayed for autophosphorylation activity (upper panel). Immunoblot analysis confirmed that similar amounts of Cds1HAHIS were recovered in the HU and mock-treated samples (lower panel).
Cds1^HAHIS was also purified from HU or mock-treated cells and assayed in an autophosphorylation assay. Phosphorylation of Cds1 was increased in samples from cells treated HU (FIG. 3B). Similar results were obtained using GST:Wee1^70 as a substrate. Thus HU apparently both activates Cds1 as a kinase and stimulates binding to Wee1.

Assay [2] concerns Cds1. Kind of assay: Binding of Cds1HAHIS from cell lysates to GST:Wee1 (immunoblot). It is filed as cell-based, Schizosaccharomyces pombe. The settings on record: lysates of Cds1HAHIS cells treated 3.5 hr with HU vs mock-treated. From the text:
FIGS. 3A–3D illustrate that HU stimulates Cds1 kinase activity, binding of Cds1 to GST:Wee1^70 in lysates and accumulation of Mik1 as described in Example 2. FIG. 3A is a photograph of an analysis of proteins which illustrates that HU stimulates Cds1 binding to GST:Wee1^70. A culture of cells expressing Cds1^HAHIS from the cds1 genomic locus was split and treated for 3.5 hr with HU or mock-treated. The cultures were split again and samples processed for Ni^2+-NTA purification of Cds1^HAHIS in denaturing conditions or purification of proteins that bind GST:Wee1 proteins in nondenaturing conditions. After extensive washing, samples were resolved by 10% SDS-polyacrylamide gel electrophoresis and subjected to immunoblot analysis.
HU may increase the abundance of Cds1, or it may make Cds1 competent to associate with Wee1, or perhaps the replication checkpoint enhances the kinase activity of Cds1. Cells expressing Cds1^HAHIS were treated with HU or mock-treated; lysates were made and precipitated with GST:Wee1 proteins. Association of Cds1^HAHIS with GST:Wee1 was detected in lysates from cells treated with HU, whereas no Cds1^HAHIS associated with GST:Wee1 in mock-treated samples (FIG. 3A).
Background: Immunoblotting shows a protein as a band on a membrane.

In assay [3] the test system is Schizosaccharomyces pombe. As to the kind of experiment: Replication checkpoint: progression through mitosis of synchronous cultures in the presence of HU. Type of assay: cell-based. The settings on record: 12 mM HU. How it is done:
FIGS. 5A–5B are graphs which illustrate that replication checkpoint is abolished in Cds1 chk1 cells as described in Example 2. […] Progression through mitosis in the presence of 12 mM HU was monitored by scoring binucleate or septated cells. The cds1 chk1 double mutant and rad3 cells underwent mitosis in the presence of HU, whereas division was arrested in control strains (wild-type, Cds1 and chk1 single mutants).
The cell lysates were obtained from a variety of strains of S. pombe cells having the following genotypes: PR109, wild-type; NB2117, cds1::ura4+; NB2118, cds1:2HA6His:ura4+; NR1826, rad3::ura4+; OM591, cdc22-M45; NR1593, rad1::ura4+; NR1592,chk1::ura4+; BF1758, nmt1:GST:chk1:leu1+; BF1916, nmt1:GST:cds1:leu1+; OM2173, mik1:2HA6His:ura4+; OM2183, mik1:2HA6His:ura4+cds1::ura4+; PR712, mik1::ura4+; and BF2115, cds1::ura4+chk1::ura4+. All strains were leu1-32 ura4-D18. All nmt1 promoter constructs were integrated at the leu1-32 locus. Growth media and general methods for S. pombe have been described [Moreno et al, Meth. Enzymol., 194:795 (1991)]. Unless otherwise indicated, yeast cultures were grown in YES medium at 30 C. […]
Cells were first grown in YES (yeast extract and glucose) medium to an OD600 of 1.0 and then treated with HU (12 mM) for 90 min at 30 C. […] Cells were scored for progression through mitosis by microscopic observation. […]

The subject of assay [4] is Schizosaccharomyces pombe. As to the kind of experiment: HU sensitivity (survival) of S. pombe strains. Type of assay: cell-based. The settings on record: for sensitivity to killing by HU: 12 mM HU. Here is the method:
FIG. 3D is a photograph of cell cultures which illustrates that Mikl is important for survival of HU treatment. Serial dilutions or wild-type and mik1 cells were plated in YES medium supplemented with 0 or 6 mM HU and incubated for 2 days at 30° C.
Cells were first grown in YES (yeast extract and glucose) medium to an OD600 of 1.0 and then treated with HU (12 mM) for 90 min at 30 C. Synchronous cells were then obtained by centrifugal elutriation with a Beckman JE-5.0 elutriation rotor. These cells were diluted to an OD600 of 0.3 in YES containing 12 mM HU and grown at 30 C. for a further 4 hr. Cells were scored for progression through mitosis by microscopic observation. HU sensitivity studies were carried out with cells grown to an OD600 of 0.3 in YES medium and then diluted to 13,000 cells/ml in YES media containing HU (12 mM), followed by growth at 30 C. for a further 8 hr. Samples (75 μl) were taken at regular intervals, plated onto YES plates and grown for 4 days at 30 C. to determine survival.

For assay [5], the system named is GST:Wee1. Kind of assay: GST:Wee1 phosphorylation by associated kinase from lysates of HU-treated cells. It is filed as cell-based, Schizosaccharomyces pombe. As to conditions: lysates of cells treated with 12 mM HU, 1 hr time course at 30° C. Here is the method: FIG. 1B is a photograph of an analysis of proteins from cells that were treated with 12 mM HU for a 1 hr time course at 30° C. Cell lysates were incubated with GST:Wee1 proteins bound to GSH-Sepharose. The GSH-Sepharose was washed and assayed for associated kinase activity. The positions of GST:Wee1^152 and GST:Wee1^70 following 12% SDS-polyacrylamide gel electrophoresis are shown.
The GST:Wee1^152 and GST:Wee1^70 proteins prepared in Example 1 were used to study yeast cellular functions. To that end, the isolated proteins were bound to glutathione (GSH)-Sepharose and mixed with cell lysates from the fission yeast Schizosaccharomyces pombe (S. pombe) harvested at intervals during incubation with hydroxyurea (HU).
The cell lysates were obtained from a variety of strains of S. pombe cells having the following genotypes: PR109, wild-type; NB2117, cds1::ura4+; NB2118, cds1:2HA6His:ura4+; NR1826, rad3::ura4+; OM591, cdc22-M45; NR1593, rad1::ura4+; NR1592,chk1::ura4+; BF1758, nmt1:GST:chk1:leu1+; BF1916, nmt1:GST:cds1:leu1+; OM2173, mik1:2HA6His:ura4+; OM2183, mik1:2HA6His:ura4+cds1::ura4+; PR712, mik1::ura4+; and BF2115, cds1::ura4+chk1::ura4+. All strains were leu1-32 ura4-D18. All nmt1 promoter constructs were integrated at the leu1-32 locus. […]
The proteins bound to GSH-Sepharose were washed, incubated with [gamma-^32P]ATP and analyzed by SDS-polyacrylamide gel electrophoresis (FIG. 1B). […]

For assay [6], the system named is Mik1. Kind of assay: Mik1HAHIS abundance in HU-treated cells (immunoblot). It is filed as cell-based, Schizosaccharomyces pombe. As to conditions: cells treated 4 hrs with 12 mM HU vs mock-treated. How it is done: FIG. 3C is a photograph of an analysis of proteins which illustrates that Cds1 and Rad3-dependent increase in Mik1 abundance in HU-treated cells. Wild-type, Cds1 and rad3 cells in which genomic mik1 encoded Mik1^HAHIS protein were incubated for 4 hrs in YES at 25° C. with 12 mM HU or mock-treated. Mik1HARIS protein was purified by Ni^2+-NTA purification in denaturing conditions and detected by immunoblotting with antibodies to HA.
Phosphorylation of Wee1 by Cds1 may play a role in the DNA replication checkpoint. However, wee1 mutants arrest division in response to HU (Enoch et al, Cell, 60:665, 1990), thus another protein that controls Cdc2 Tyr^15 phosphorylation must also be regulated by the replication checkpoint. The kinase Mik1 phosphorylates Cdc2 on Tyr^15 (Lundgren et al, Cell, 64:1111, 1991), therefore the abundance of Mik1 was monitored in HU-treated cells using a strain expressing Mik1^HAHIS from the genomic locus. […] The abundance of mik1 mRNA was unchanged in HU-treated cells, thus HU must influence Mik1 synthesis or turnover. […] Mik1 is a dose-dependent inhibitor of mitosis (Lundgren et al, Cell, 64:1111, 1991), thus the increase of Mik1 abundance in HU-treated cells should help to enforce the checkpoint.

`NC(=O)NO` [HU, hydroxyurea]: the “phosphorylation of Cds1 (autophosphorylation)” value in assay [1] is listed as “increased”. Moreover, the “association of Cds1 with GST:Wee1” value in assay [2] was “enhanced association”. The “cell division in the presence of HU” value in assay [3] (Cds1 chk1 double mutant cells) is given as “underwent division”; in assay [3] (wild-type cells, Cds1 and chk1 single mutants) it was “arrested division”. Further, the “sensitivity to killing by HU” value is “moderately sensitive” in assay [4] (Cds1 cells); “acutely sensitive to killing” in assay [4] (Cds1 chk1 double mutant cells); “not sensitive” in assay [4] (wild-type and chk1 cells). In assay [4] (mik1 mutants, YES medium with 0 or 6 mM HU, 2 days at 30° C.), the “sensitivity to HU” value is “enhanced sensitivity”. Also, the “phosphorylation of GST:Wee1^152 and GST:Wee1^70” value in assay [5] is listed as “increased”. The “amount of Mik1HAHIS” value in assay [6] is given as “increased”.
